What was measured:
[1] = biological target: T1, MK2 (Homo sapiens, UniProt P49137); test: MK2 degradation in human THP-1 monocytic cells (MSD, 24 h); assay type: cell-based; parameters: endogenous in cells; key to MK2 MSD THP-1 degradation 24 h GMean External Abs DC50: A (<0.001 μM); B (0.001-0.01 μM); C (0.01-0.1 μM); D (>0.1 μM); —: “-”=not tested or inactive; details: for Dmax: THP-1, THP-1 cells; for DC50 / MK2 MSD THP-1 degradation 24 h GMean External Abs DC50: THP-1 cells; for DC50: read-out: MK2 MSD THP-1 degradation 24 h GMean External Abs DC50
T1 sequence (P49137 whole entry): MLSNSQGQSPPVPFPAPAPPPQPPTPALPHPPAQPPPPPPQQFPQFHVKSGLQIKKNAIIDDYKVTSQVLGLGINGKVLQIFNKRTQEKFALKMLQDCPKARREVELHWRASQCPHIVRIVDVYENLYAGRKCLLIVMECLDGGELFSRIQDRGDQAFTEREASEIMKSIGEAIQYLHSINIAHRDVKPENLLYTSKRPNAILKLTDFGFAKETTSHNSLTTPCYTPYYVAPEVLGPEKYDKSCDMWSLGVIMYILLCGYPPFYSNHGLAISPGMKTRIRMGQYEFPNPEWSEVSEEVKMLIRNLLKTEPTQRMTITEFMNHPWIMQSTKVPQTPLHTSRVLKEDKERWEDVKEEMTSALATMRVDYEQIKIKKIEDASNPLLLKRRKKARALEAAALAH
Summary of the method: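 THP-1 cells (200,000/well) treated 24 h at 37 °C with compound dilution series (up to 10 points, 0.1% DMSO). MK2 in RIPA lysates quantified by MSD sandwich immunoassay. DC50 from 4-parameter logistic fit, DMSO-treated cells as high and lysis buffer as low signal.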

[2] = biological target: T1, MK2; test: MK2 degradation in human SW1353 cells (MSD, 24 h); assay type: cell-based; parameters: endogenous in cells; host or cells: SW-1353 (ATCC HTB-94); key to MK2 MSD SW1353 degradation 24 h GMean External Abs DC50: A (<0.001 μM); B (0.001-0.01 μM); C (0.01-0.1 μM); D (>0.1 μM); —: “-”=not tested or inactive; key to MK2 MSD SW 1353 24 h Dmax %: —: “-”=not tested or inactive; details: for Dmax: read-out: MK2 MSD SW 1353 24 h Dmax %; for DC50: read-out: MK2 MSD SW1353 degradation 24 h GMean External Abs DC50
Summary of the method: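 SW1353 chondrosarcoma cells were treated with up to 10-point serial dilutions (0.1% DMSO) for 24 h at 37 °C, then lysed in RIPA buffer. MK2 levels were quantified by MSD sandwich immunoassay; DC50 came from a 4-parameter logistic fit normalised to DMSO-treated cells (high) and lysis buffer (low).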

Row | Compound | Dmax [1] [%] | DC50 [1] [nM] | Dmax [2] [%] | DC50 [2] [nM] | MK2 MSD THP-1 degradation 24 h GMean External Abs DC50 [1] | MK2 MSD SW1353 degradation 24 h GMean External Abs DC50 [2] | MK2 MSD SW 1353 24 h Dmax % [2]
1 | C[C@@H]1CNc2c(sc3ccc4nc(-c5ccc(N6CCN(CCCc7cccc8c7n(C)c(=O)n8C7CCC(=O)NC7=O)CC6)cc5)ccc4c23)C(=O)N1 (stereo partly drawn) [Compound I-172] | > 75 | < 1 | > 75 | < 1 |  |  | 
2 | C[C@@H]1CNc2c(sc3ccc4nc(-c5ccc(N6CCN(CCCc7ccc8c(c7)n(C)c(=O)n8C7CCC(=O)NC7=O)CC6)cc5)ccc4c23)C(=O)N1 (stereo partly drawn) [Compound I-173] | > 75 | < 1 | > 75 | < 1 |  |  | 
3 | C[C@@H]1CNc2c(sc3ccc4nc(-c5ccc(N6CCN(CCCCCc7ccc8c(c7)n(C)c(=O)n8C7CCC(=O)NC7=O)CC6)cc5)ccc4c23)C(=O)N1 (stereo partly drawn) [Compound I-174] | > 75 | < 1 | > 75 | < 1 |  |  | 
4 | C[C@@H]1CNc2c(sc3ccc4nc(-c5ccc(N6CCN(CCCCCCCCc7ccc8c(c7)n(C)c(=O)n8C7CCC(=O)NC7=O)CC6)cc5)ccc4c23)C(=O)N1 (stereo partly drawn) [Compound I-175] | > 75 | 1 to 10 | > 75 | 1 to 10 |  |  | 
5 | C[C@@H]1CNc2c(sc3ccc4nc(-c5cccc(N6CCN(CCCCCCCCc7ccc8c(c7)n(C)c(=O)n8C7CCC(=O)NC7=O)CC6)c5)ccc4c23)C(=O)N1 (stereo partly drawn) [Compound I-176] | 50 to 75 | 1 to 10 | > 75 | 1 to 10 |  |  | 
6 | C[C@@H]1CNc2c(sc3ccc4nc(-c5cccc(N6CCN(CCCCCCCCCCc7cccc8c7n(C)c(=O)n8C7CCC(=O)NC7=O)CC6)c5)ccc4c23)C(=O)N1 (stereo partly drawn) [Compound I-177] | > 75 | 10 to 100 | > 75 | 10 to 100 |  |  | 
7 | C[C@@H]1CNc2c(sc3ccc4nc(-c5cccc(N6CCN(CCCCCCCCCCc7ccc8c(c7)n(C)c(=O)n8C7CCC(=O)NC7=O)CC6)c5)ccc4c23)C(=O)N1 (stereo partly drawn) [Compound I-178] | > 75 | 10 to 100 | > 75 | 10 to 100 |  |  | 
8 | Cn1c(=O)n(C2CCC(=O)NC2=O)c2cccc(CCN3CCN(c4ccc(-c5cc(-c6cc7c([nH]6)C6(CC6)CNC7=O)ccn5)c(F)c4)CC3)c21 (stereo not drawn) [Compound I-179] | > 75 |  | > 75 |  | — | — | 
9 | COc1cc(-c2ccc3c(ccc4sc5c(c43)NC[C@@H](C)NC5=O)n2)c(F)cc1N1CCN(CC2CCN(c3ccc4c(c3)n(C)c(=O)n4C3CCC(=O)NC3=O)CC2)CC1 (stereo partly drawn) [Compound I-180] | > 75 |  | > 75 |  |  |  | 
10 | C[C@@H]1CNc2c(sc3ccc4nc(N5C[C@H]6C[C@@H]5CN6CC5CCN(c6cccc7c6n(C)c(=O)n7C6CCC(=O)NC6=O)CC5)ccc4c23)C(=O)N1 (stereo partly drawn) [Compound I-182] | < 50 |  | < 50 |  | — | — | 
11 | C[C@@H]1CNc2c(sc3ccc4nc(-c5ccc(N6CCN(CCCCOc7ccc(C8CCC(=O)NC8=O)cc7)CC6)nc5)ccc4c23)C(=O)N1 (stereo partly drawn) [Compound I-183] | > 75 |  | > 75 |  | — | — | 
12 | C[C@@H]1CNc2c(sc3ccc4nc(N5CCN(CC6CCN(c7ccc(-c8ccc9c(c8)n(C)c(=O)n9C8CCC(=O)NC8=O)cc7)CC6)CC5)ccc4c23)C(=O)N1 (stereo partly drawn) [Compound I-184] | > 75 |  | > 75 |  | — | — | 
13 | C[C@@H]1CNc2c(sc3ccc4nc(N5CCC6(CC5)CC(N5CCN(c7ccc8c(c7)n(C)c(=O)n8C7CCC(=O)NC7=O)CC5)C6)ccc4c23)C(=O)N1 (stereo partly drawn) [Compound I-185] | > 75 |  | > 75 |  | — | — | 
14 | C#Cc1cc(-c2ccc3c(ccc4sc5c(c43)NC[C@@H](C)NC5=O)n2)cc(N2CCN(CC3CCN(c4ccc5c(c4)n(C)c(=O)n5C4CCC(=O)NC4=O)CC3)CC2)c1 (stereo partly drawn) [Compound I-186] | > 75 |  | > 75 |  | — | — | 
15 | C[C@@H]1CNc2c(sc3ccc4nc(N5C[C@@H]6C[C@H]5CN6CC5CCN(c6cccc7c6n(C)c(=O)n7C6CCC(=O)NC6=O)CC5)ccc4c23)C(=O)N1 (stereo partly drawn) [Compound I-187] | < 50 | > 100 | < 50 | > 100 |  |  | 
16 | O=C1CCN(c2cncc3c(N4CC(CN5CCN(c6ccc(-c7cc(-c8cc9c([nH]8)C8(CC8)CNC9=O)ccn7)cc6)CC5)C4)cccc23)C(=O)N1 [Compound I-188] | > 75 | 1 to 10 | > 75 | 1 to 10 |  |  | 
17 | Cn1c(=O)n(C2CCC(=O)NC2=O)c2ccc(N3CC(CN4CCN(c5ccc(-c6cc(-c7cc8c([nH]7)C7(CC7)CNC8=O)ccn6)cc5)CC4)C3)cc21 (stereo not drawn) [Compound I-189] | > 75 | < 1 | > 75 | < 1 |  |  | 
18 | Cn1c(=O)n(C2CCC(=O)NC2=O)c2cccc(N3CC(CN4CCN(c5ccc(-c6cc(-c7cc8c([nH]7)C7(CC7)CNC8=O)ccn6)cc5)CC4)C3)c21 (stereo not drawn) [Compound I-190] | > 75 | < 1 | > 75 | < 1 |  |  | 
19 | Cn1c(=O)n(C2CCC(=O)NC2=O)c2cccc(CCCN3CCN(c4ccc(-c5cc(-c6cc7c([nH]6)C6(CCCC6)CNC7=O)ccn5)cc4)CC3)c21 (stereo not drawn) [Compound I-191] | 50 to 75 | 10 to 100 | > 75 | 1 to 10 |  |  | 
20 | Cn1c(=O)n(C2CCC(=O)NC2=O)c2ccc(N3CCC(CN4CCN(c5ccc(-c6cc(-c7cc8c([nH]7)C7(CCCC7)CNC8=O)ccn6)cc5)CC4)CC3)cc21 (stereo not drawn) [Compound I-192] | > 75 | < 1 | > 75 | < 1 |  |  | 
21 | Cn1c(=O)n(C2CCC(=O)NC2=O)c2ccc(N3CCC(CN4CCN(c5cc(-c6cc(-c7cc8c([nH]7)CCNC8=O)ccn6)cc(C6CCCC6)c5)CC4)CC3)cc21 (stereo not drawn) [Compound I-193] | < 50 | > 100 |  | > 100 |  |  | —
22 | Cc1cc(-c2cc(-c3cc4c([nH]3)C3(CC3)CNC4=O)ccn2)cc(C)c1N1CCN(CC2CCN(c3ccc4c(c3)n(C)c(=O)n4C3CCC(=O)NC3=O)CC2)CC1 (stereo not drawn) [Compound I-194] | > 75 | < 1 | > 75 | < 1 |  |  | 
23 | C[C@@H]1CNc2c(sc3ccc4nc(-c5ccc(N6CCN(C[C@H]7CCN(c8ccc9c(c8)n(C)c(=O)n9C8CCC(=O)NC8=O)C7)CC6)cc5)ccc4c23)C(=O)N1 (stereo partly drawn) [Compound I-195] | > 75 | < 1 | > 75 | < 1 |  |  | 
24 | C[C@@H]1CNc2c(sc3ccc4nc(N5CCN(CC6CCN(c7cccc8c7n(C)c(=O)n8C7CCC(=O)NC7=O)CC6)CC5)ccc4c23)C(=O)N1 (stereo partly drawn) [Compound I-196] | > 75 | 1 to 10 |  |  |  | — | —
25 | O=C1CCN(c2cncc3c(N4CC(CN5CCN(c6ccc(-c7cc(-c8cc9c([nH]8)CCNC9=O)ccn7)cc6)CC5)C4)cccc23)C(=O)N1 [Compound I-197] | > 75 | 10 to 100 |  |  |  | — | —
26 | O=C1CCN(c2cncc3c(N4CCN(CC5CCN(c6ccc(-c7cc(-c8cc9c([nH]8)CCNC9=O)ccn7)cc6)CC5)CC4)cccc23)C(=O)N1 [Compound I-198] | > 75 | 10 to 100 |  |  |  | — | —

Source: patent publication US20230135894A1, “MK2 DEGRADERS AND USES THEREOF” (Kymera Therapeutics, Inc., priority 2021, published 2023)
